Measured values as given in patent publication US11613746B2, “Methods for developing virus protein specific capture agents, capture agents, and methods of using the capture agents” (priority 2019, dated 2023).
Like-named read-outs stand apart in the source and are kept apart here.

Biological target: T1, CHIKV E2 protein (Chikungunya virus, UniProt Q8JUX5)
T1 construct: incubated with varying concentrations of biotin conjugated CHIKV E2 protein
T1 sequence (Q8JUX5 326-748 limits assumed): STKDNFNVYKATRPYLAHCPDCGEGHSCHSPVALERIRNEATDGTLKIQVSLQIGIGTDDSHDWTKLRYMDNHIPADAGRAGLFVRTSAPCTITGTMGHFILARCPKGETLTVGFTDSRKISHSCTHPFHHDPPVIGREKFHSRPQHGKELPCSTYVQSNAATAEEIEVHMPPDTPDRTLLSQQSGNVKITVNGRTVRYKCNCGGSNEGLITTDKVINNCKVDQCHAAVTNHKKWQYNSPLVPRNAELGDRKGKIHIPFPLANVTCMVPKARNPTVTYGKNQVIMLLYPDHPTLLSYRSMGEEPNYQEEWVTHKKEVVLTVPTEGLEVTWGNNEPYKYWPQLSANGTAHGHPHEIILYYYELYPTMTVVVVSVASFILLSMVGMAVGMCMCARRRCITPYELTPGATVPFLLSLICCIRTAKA
Test: LUMINEX binding assay (sandwich-type) of bead-attached capture agents with biotin conjugated CHIKV E2 protein
Settings: for EC50: FIG. 9
Description: Referring to FIG. 4, the binding performance of each capture agent is determined using a LUMINEX® binding assay, which is essentially the same as a sandwich-type ELISA, where the peptides are attached to a bead as a one-arm polyethylene glycol (PEG) or three-arm PEG construct. By allowing these beads to interact with varying concentrations of the CHIKV E2 protein, one can determine and compare the binding performance of each capture agent construct. A smaller value of the variable on the horizontal axis at the inflection point of a given plot for a corresponding capture agent indicates stronger binding for the corresponding capture agent with respect to the target protein or target molecule.
Referring to FIG. 4, the assay for an illustrative example was performed on a LUMINEX® 200 instrument. LUMINEX®'s xMAP technology drives multiplexed assay capabilities by combining fluidics, optics, and digital signal processing with microsphere technology. The LUMINEX® 200 is capable of testing up to 100 analytes simultaneously from a single sample and is the leading multiplex immunoassay technology. In general, the color-coded microspheres are the substrate on which the solution phase assays are performed, where a specific microsphere color corresponds to an individual receptor attached to the microsphere surface.
In one illustrative example, 6 separate microsphere regions were first functionalized with a single arm polyethlyglycine (PEG) azide molecule. Each microsphere region was then reacted with an individual, alkyne-functionalized cyclic peptide (with the sequence WIYYI, IYLRY, YWHWS, FWQIL), or an equal combination of all sequences (noted as “polyclonal”). As a control, polyclonal Anti-E2 antibody was attached to a bead region for performance comparison against the peptide constructs. In an analogous experiment, the exact same process was repeated, except the single arm PEG azide molecule was switched to a 3-arm PEG azide molecule.
The details of some of the synthesis and experimental techniques useful in the embodiments herein can be found in United States Patent Application Publication No. US 2017/0349754 A1, by Matthew B. Coppock, published Dec. 7, 2017, M. B. Coppock et al., “A novel discovery, maturation, and assay integration approach for the development of ruggedized multi-valent capture receptors exemplified against the chikungunya virus E2 protein,” Sensing and Bio-Sensing Research 22 (2019) 100248, and M. B. Coppock, D. N. Stratis-Cullum, “A universal method for the functionalization of dyed magnetic microspheres with peptides,” Methods 158 (2019) 12-16, all of which, including their supplemental parts and appendices, are incorporated by reference herein in their entirety. […]

Substance	binding activity remaining after heating (heated at 90° C. for 1 hr, result in words)	binding performance compared to commercially available antibody raised against E2 (multi-arm constructs, result in words)	EC50 (heated at 90° C. for 1 hr before assay, read-out: EC50 (binding activity for CHIKV E2) after heating) [nM]	EC50 (unheated control, LUMINEX assay, read-out: EC50 (binding activity for CHIKV E2) before heating) [nM]
WIYYI	no loss in binding activity	outperform the antibody	–	–
WIYYI (chains of the parent or of the whole protein)	–	–	0.245 ± 0.005	0.232 ± 0.006
